Assay [1] addresses T1, Rat TRPA1 expressing CHO cells (Rattus norvegicus, UniProt Q6RI86).
T1 construct: expressed in transfected cells; host or cells: CHO cells (Zeocin selection)
Briefly: 45Calcium uptake assay, inhibition of AITC induced calcium uptake (rat). The note with it: rat TRPA1 CHO cells, AITC 10 μM; for inhibition at 1 µM: compound 1.0 μM, read-out: Percentage inhibition at 1.0 μM; for inhibition at 10 µM: compound 10.0 μM, read-out: Percentage inhibition at 10.0 μM; for pIC50: read-out: Rat IC50 value (Range). Type of assay: cell-based. How it is done:
(§1) Screening for TRPA1 Antagonist Using the ^45Calcium Uptake Assay:
(§2) The inhibition of TRPA1 receptor activation was measured as inhibition of allyl isothiocyanate (AITC) induced cellular uptake of radioactive calcium.
(§3) Test compounds were dissolved in 100% DMSO to prepare 10 mM stock and then diluted using plain medium with 0.1% BSA and 1.8 mM CaCl2 to get the desired concentration. The final concentration of DMSO in the reaction was 0.5% (v/v). […] Rat TRPA1 expressing CHO cells were grown in F-12 DMEM medium with 10% FBS, 1% penicillin-streptomycin solution, and 400 μg/ml of Zeocin. […] Cells were treated with the test compounds for 10 minutes followed by the addition of AITC at a final concentration of 30 μM (for human TRPA1) and/or 10 μM (for rat TRPA1) and 5 μCi/ml ^45Ca^+2 for 3 minutes. Cells were washed and lysed using a buffer containing 1% Triton X-100, 0.1% deoxycholate and 0.1% SDS. Radioactivity in the lysate was measured in a Packard TopCount after addition of liquid scintillant.
(§4) Concentration response curves were plotted as a % of maximal response obtained in the absence of test antagonist. IC50 values can be calculated from concentration response curve by nonlinear regression analysis using GraphPad PRISM software.

The target in assay [2] is T2, Human TRPA1 expressing CHO cells (Homo sapiens, UniProt O75762).
T2 construct: expressed in transfected cells; host or cells: CHO cells (G-418 selection)
T2 sequence (O75762 whole entry): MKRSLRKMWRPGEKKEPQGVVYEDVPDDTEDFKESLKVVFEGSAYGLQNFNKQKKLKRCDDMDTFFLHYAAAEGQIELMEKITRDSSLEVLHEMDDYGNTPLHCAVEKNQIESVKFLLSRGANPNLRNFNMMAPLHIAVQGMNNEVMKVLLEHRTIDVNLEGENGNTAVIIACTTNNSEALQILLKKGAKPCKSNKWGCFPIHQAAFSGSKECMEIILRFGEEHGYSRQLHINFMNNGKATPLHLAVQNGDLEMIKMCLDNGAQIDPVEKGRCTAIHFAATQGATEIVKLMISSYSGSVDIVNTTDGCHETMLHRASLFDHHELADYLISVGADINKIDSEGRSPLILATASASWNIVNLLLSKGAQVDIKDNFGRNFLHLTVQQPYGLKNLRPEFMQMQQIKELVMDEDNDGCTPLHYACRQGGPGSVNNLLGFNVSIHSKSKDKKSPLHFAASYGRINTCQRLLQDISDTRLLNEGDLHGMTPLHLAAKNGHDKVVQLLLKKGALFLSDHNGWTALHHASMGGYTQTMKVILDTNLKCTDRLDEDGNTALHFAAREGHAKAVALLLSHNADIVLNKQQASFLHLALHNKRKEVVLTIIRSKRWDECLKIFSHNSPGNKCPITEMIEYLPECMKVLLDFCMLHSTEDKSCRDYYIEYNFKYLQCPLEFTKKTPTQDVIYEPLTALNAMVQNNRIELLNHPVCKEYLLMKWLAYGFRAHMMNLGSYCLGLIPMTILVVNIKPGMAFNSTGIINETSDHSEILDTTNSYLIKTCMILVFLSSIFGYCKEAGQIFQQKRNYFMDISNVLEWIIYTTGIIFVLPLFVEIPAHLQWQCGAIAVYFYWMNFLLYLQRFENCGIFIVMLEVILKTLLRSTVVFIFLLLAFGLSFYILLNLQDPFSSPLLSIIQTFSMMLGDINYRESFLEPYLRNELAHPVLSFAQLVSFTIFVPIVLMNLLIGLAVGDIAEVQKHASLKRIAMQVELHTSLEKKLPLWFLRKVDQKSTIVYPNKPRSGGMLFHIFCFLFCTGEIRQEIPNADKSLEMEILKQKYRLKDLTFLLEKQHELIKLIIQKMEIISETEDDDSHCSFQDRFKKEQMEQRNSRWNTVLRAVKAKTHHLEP
Briefly: 45Calcium uptake assay, inhibition of AITC induced calcium uptake (human). Type of assay: cell-based. Conditions: human TRPA1 CHO cells, AITC 30 μM; for inhibition at 1 µM: compound 1.0 μM, read-out: Percentage inhibition at 1.0 μM; for inhibition at 10 µM: compound 10.0 μM, read-out: Percentage inhibition at 10.0 μM; for pIC50: read-out: Human IC50 value (Range). The method, then: as §1, §2, §3, §4

pIC50: −log10 of the molar value.

T1 sequence (Q6RI86 whole entry): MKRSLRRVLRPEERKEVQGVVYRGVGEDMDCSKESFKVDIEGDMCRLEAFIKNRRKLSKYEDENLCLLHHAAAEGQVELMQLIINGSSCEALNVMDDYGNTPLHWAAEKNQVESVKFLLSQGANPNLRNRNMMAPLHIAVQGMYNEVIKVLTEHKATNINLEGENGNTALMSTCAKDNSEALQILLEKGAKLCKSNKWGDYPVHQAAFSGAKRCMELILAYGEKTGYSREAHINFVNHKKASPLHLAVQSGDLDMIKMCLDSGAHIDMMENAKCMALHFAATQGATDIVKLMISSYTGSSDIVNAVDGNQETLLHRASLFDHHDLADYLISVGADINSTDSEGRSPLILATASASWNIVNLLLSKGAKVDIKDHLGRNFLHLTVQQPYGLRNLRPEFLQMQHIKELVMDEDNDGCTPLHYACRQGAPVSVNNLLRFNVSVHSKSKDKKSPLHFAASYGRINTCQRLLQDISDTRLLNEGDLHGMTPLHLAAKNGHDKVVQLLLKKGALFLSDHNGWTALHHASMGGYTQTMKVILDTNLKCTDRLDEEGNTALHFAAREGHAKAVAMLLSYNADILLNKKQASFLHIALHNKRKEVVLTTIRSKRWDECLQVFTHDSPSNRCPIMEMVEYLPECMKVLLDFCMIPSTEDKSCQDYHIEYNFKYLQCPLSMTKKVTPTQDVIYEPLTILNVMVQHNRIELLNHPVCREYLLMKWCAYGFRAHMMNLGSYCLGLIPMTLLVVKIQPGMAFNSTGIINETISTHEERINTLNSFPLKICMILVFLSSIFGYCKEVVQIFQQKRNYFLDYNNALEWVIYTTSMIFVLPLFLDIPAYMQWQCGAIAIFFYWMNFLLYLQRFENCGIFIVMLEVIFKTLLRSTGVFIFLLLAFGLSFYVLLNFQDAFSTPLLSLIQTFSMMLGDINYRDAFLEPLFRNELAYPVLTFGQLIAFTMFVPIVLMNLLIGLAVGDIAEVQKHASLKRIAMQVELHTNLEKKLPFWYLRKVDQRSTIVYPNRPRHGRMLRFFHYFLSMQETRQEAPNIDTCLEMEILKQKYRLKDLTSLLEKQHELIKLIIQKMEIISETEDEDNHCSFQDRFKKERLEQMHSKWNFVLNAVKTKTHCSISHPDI

The term inhibition denotes the drop in the measured response relative to a control, in per cent. A word on the pIC50: it is the negative decadic logarithm of the IC50, by convention in mol/L. For `Cc1sc2c(c1CC(=O)Nc1nc(-c3ccc(F)c(C(F)(F)F)c3F)cs1)c(=O)n(C)c(=O)n2C` [Example 27, N-{4-[2,4-Difluoro-3-(trifluoromethyl)phenyl]-1,3-thiazol-2-yl}-2-(1,3,6-trimethyl-2,4-dioxo-1,2,3,4-tetrahydrothieno[2,3-d]pyrimidin-5-yl)acetamide], in assay [1], the inhibition at 1 µM is 97.9%, the inhibition at 10 µM came out at 98% and the pIC50 was 6.30 to 7.30. Further, in assay [2], the inhibition at 1 µM was 93.2%, the inhibition at 10 µM was found to be 99.1% and the pIC50 was more than 7.30.
With `Cc1sc2c(c1CC(=O)Nc1nc(-c3cccc(OC(F)(F)F)c3)cs1)c(=O)n(C)c(=O)n2C` [Example 18, N-{4-[3-(Trifluoromethoxy)phenyl]-1,3-thiazol-2-yl}-2-(1,3,6-trimethyl-2,4-dioxo-1,2,3,4-tetrahydrothieno[2,3-d]pyrimidin-5-yl)acetamide], in assay [1], the inhibition at 1 µM came out at 95.7% and the inhibition at 10 µM came out at 100%. Also, in assay [2], the inhibition at 1 µM was found to be 98.5%, the inhibition at 10 µM came out at 100% and the pIC50 is 6.30 to 7.30.
`Cc1sc2c(c1CC(=O)Nc1nc(-c3ccc(F)c(C(F)(F)F)c3)cs1)c(=O)n(C)c(=O)n2C` [Example 23, N-{4-[4-Fluoro-3-(trifluoromethyl)phenyl]-1,3-thiazol-2-yl}-2-(1,3,6-trimethyl-2,4-dioxo-1,2,3,4-tetrahydrothieno[2,3-d]pyrimidin-5-yl)acetamide]: in assay [1], the inhibition at 1 µM was found to be 100%, the inhibition at 10 µM was 99.7% and the pIC50 is 6.30 to 7.30. In addition, in assay [2], the inhibition at 1 µM worked out at 97.7%, the inhibition at 10 µM was determined as 99% and the pIC50 was more than 7.30.
For `Cn1c(=O)c2c(CC(=O)Nc3nc(-c4ccc(C(F)(F)F)c(F)c4F)cs3)scc2n(C)c1=O` [Example 56, N-{4-[2,3-Difluoro-4-(trifluoromethyl)phenyl]-1,3-thiazol-2-yl}-2-(1,3-dimethyl-2,4-dioxo-1,2,3,4-tetrahydrothieno[3,4-d]pyrimidin-5-yl)acetamide], in assay [1], the inhibition at 1 µM stood at 96.9%, the inhibition at 10 µM came out at 100% and the pIC50 was 6.30 to 7.30. Also, in assay [2], the inhibition at 1 µM was found to be 94.4%, the inhibition at 10 µM was 99.5% and the pIC50 is more than 7.30.
As for `CCc1sc2c(c1CC(=O)Nc1nc(-c3ccc(C(F)(F)F)c(F)c3)cs1)c(=O)n(C)c(=O)n2C` [Example 31, N-{4-[3-Fluoro-4-(trifluoromethyl)phenyl]-1,3-thiazol-2-yl}-2-(6-ethyl-1,3-dimethyl-2,4-dioxo-1,2,3,4-tetrahydrothieno[2,3-d]pyrimidin-5-yl)acetamide], in assay [1], the inhibition at 1 µM amounted to 96.8%, the inhibition at 10 µM came to 97.3% and the pIC50 is 6.30 to 7.30. In assay [2], the inhibition at 1 µM was found to be 98%, the inhibition at 10 µM was found to be 98.5% and the pIC50 was more than 7.30.
Consider `Cn1c(=O)c2c(CC(=O)Nc3nc(-c4ccc(F)c(OC(F)(F)F)c4)cs3)scc2n(C)c1=O` [Example 55, 2-(1,3-Dimethyl-2,4-dioxo-1,2,3,4-tetrahydrothieno[3,4-d]pyrimidin-5-yl)-N-{4-[4-fluoro-3-(trifluoromethoxy)phenyl]-1,3-thiazol-2-yl}acetamide], for which, in assay [1], the inhibition at 1 µM is 70.4% and the inhibition at 10 µM is 99.9%. Moreover, in assay [2], the inhibition at 1 µM was 99.6%, the inhibition at 10 µM was determined as 99.8% and the pIC50 was more than 7.30.
As to `Cn1c(=O)c2c(CC(=O)Nc3nc(-c4cccc(C(F)(F)F)c4)cs3)scc2n(C)c1=O` [Example 46], in assay [1], the inhibition at 1 µM was 93.2%, the inhibition at 10 µM turned out to be 99.7% and the pIC50 was 6.30 to 7.30. Moreover, in assay [2], the inhibition at 1 µM was 93.9%, the inhibition at 10 µM turned out to be 98.5% and the pIC50 is more than 7.30.
Consider `Cc1sc2c(c1CC(=O)Nc1nc(-c3ccc(C(F)(F)F)c(F)c3)cs1)c(=O)n(C)c(=O)n2C` [Example 24, N-{4-[3-Fluoro-4-(trifluoromethyl)phenyl]-1,3-thiazol-2-yl}-2-(1,3,6-trimethyl-2,4-dioxo-1,2,3,4-tetrahydrothieno[2,3-d]pyrimidin-5-yl)acetamide], for which, in assay [1], the inhibition at 1 µM amounted to 99.8%, the inhibition at 10 µM was determined as 100% and the pIC50 is 6.30 to 7.30. Further, in assay [2], the inhibition at 1 µM came out at 98.5%, the inhibition at 10 µM stood at 99.9% and the pIC50 is more than 7.30.
With `Cn1c(=O)c2c(CC(=O)Nc3nc(-c4ccc(F)c(OC(F)(F)F)c4)cs3)csc2n(C)c1=O` [Example 10, 2-(1,3-Dimethyl-2,4-dioxo-1,2,3,4-tetrahydrothieno[2,3-d]pyrimidin-5-yl)-N-{4-[4-fluoro-3-(trifluoromethoxy)phenyl]-1,3-thiazol-2-yl}acetamide], in assay [1], the inhibition at 1 µM was determined as 96.1%, the inhibition at 10 µM was 100% and the pIC50 is 6.30 to 7.30. In assay [2], the inhibition at 1 µM is 98.2%, the inhibition at 10 µM turned out to be 99.5% and the pIC50 is more than 7.30.
With `Cn1c(=O)c2c(CC(=O)Nc3nc(-c4ccc(Cl)c(Cl)c4)cs3)scc2n(C)c1=O` [Example 53, N-[4-(3,4-Dichlorophenyl)-1,3-thiazol-2-yl]-2-(1,3-dimethyl-2,4-dioxo-1,2,3,4-tetrahydrothieno[3,4-d]pyrimidin-5-yl)acetamide], in assay [1], the inhibition at 1 µM came out at 42.7% and the inhibition at 10 µM turned out to be 97.9%. For the same molecule, in assay [2], the inhibition at 1 µM came to 97.8%, the inhibition at 10 µM was 99.3% and the pIC50 was 6.30 to 7.30.
In the case of `CCc1sc2c(c1CC(=O)Nc1nc(-c3cc(F)c(OCC(F)(F)F)c(F)c3)cs1)c(=O)n(C)c(=O)n2C` [Example 34, N-{4-[3,5-Difluoro-4-(2,2,2-trifluoroethoxy)phenyl]-1,3-thiazol-2-yl}-2-(6-ethyl-1,3-dimethyl-2,4-dioxo-1,2,3,4-tetrahydrothieno[2,3-d]pyrimidin-5-yl)acetamide], in assay [1], the inhibition at 1 µM worked out at 88.7%, the inhibition at 10 µM amounted to 93.3% and the pIC50 is 6.30 to 7.30. In assay [2], the inhibition at 1 µM amounted to 97.4%, the inhibition at 10 µM turned out to be 98.4% and the pIC50 was more than 7.30.
Regarding `Cn1c(=O)c2c(CC(=O)Nc3nc(-c4cccc(C(F)(F)F)c4F)cs3)csc2n(C)c1=O` [Example 9, 2-(1,3-Dimethyl-2,4-dioxo-1,2,3,4-tetrahydrothieno[2,3-d]pyrimidin-5-yl)-N-{4-[2-fluoro-3-(trifluoromethyl)phenyl]-1,3-thiazol-2-yl}acetamide], in assay [1], the inhibition at 1 µM amounted to 100%, the inhibition at 10 µM amounted to 100% and the negative-log IC50 (pIC50) was 6.30 to 7.30. Besides, in assay [2], the inhibition at 1 µM is 99.2%, the inhibition at 10 µM turned out to be 98.4% and the pIC50 is more than 7.30.
As for `Cn1c(=O)c2c(CC(=O)Nc3nc(-c4cc(F)c(C(F)(F)F)c(F)c4)cs3)scc2n(C)c1=O` [Example 58, N-{4-[3,5-difluoro-4-(trifluoromethyl)phenyl]-1,3-thiazol-2-yl}-2-(1,3-dimethyl-2,4-dioxo-1,2,3,4-tetrahydrothieno[3,4-d]pyrimidin-5-yl)acetamide], in assay [1], the inhibition at 1 µM was 71.1% and the inhibition at 10 µM is 71.7%. Moreover, in assay [2], the inhibition at 1 µM is 84.9%, the inhibition at 10 µM turned out to be 95.8% and the pIC50 is more than 7.30.
The corresponding values for `Cn1c(=O)c2c(CC(=O)Nc3nc(-c4cc(F)c(OC(F)F)c(F)c4)cs3)scc2n(C)c1=O` [Example 59, N-{4-[4-(Difluoromethoxy)-3,5-difluorophenyl]-1,3-thiazol-2-yl}-2-(1,3-dimethyl-2,4-dioxo-1,2,3,4-tetrahydrothieno[3,4-d]pyrimidin-5-yl)acetamide] are 12.7%, 87.6%, 89.3%, 91.4% and more than 7.30.
As for `Cn1c(=O)c2c(CC(=O)Nc3nc(-c4ccc(C(F)(F)F)c(F)c4)cs3)csc2n(C)c1=O` [Example 5, 2-(1,3-Dimethyl-2,4-dioxo-1,2,3,4-tetrahydrothieno[2,3-d]pyrimidin-5-yl)-N-{4-[3-fluoro-4-(trifluoromethyl)phenyl]-1,3-thiazol-2-yl}acetamide], the pIC50 in assay [1] was more than 7.30. Besides, in assay [2], the inhibition at 1 µM was determined as 95.3%, the inhibition at 10 µM came to 99.9% and the pIC50 is more than 7.30.

These data come from patent publication US9474758B2, “Thienopyrimidinedione derivatives as TRPA1 modulators” (Glenmark Pharmaceuticals S.A., priority 2009, dated 2016).
